# Measurements: US20070049620A1, “Cyclic tertiary amine compound” (SANKYO COMPANY, LIMITED, priority 2003, published 2007)
row,SMILES,melting point [°C]
1,"CNC(=O)c1ccc([C@@H]2C[C@H]3C=C(c4c[nH]c(-c5ccc(F)cc5)c4-c4ccncc4)CCN3C2)cc1 [Example 53, 2-(4-Fluorophenyl)-4-[(2S,8aS)-2-[4-(N-methylcarbamoyl)phenyl]-1,2,3,5,6,8a-hexahydroindolizin-7-yl]-3-(pyridin-4-yl)-1H-pyrrole]",171 to 173
2,"CCNC(=O)c1ccc([C@@H]2C[C@H]3C=C(c4c[nH]c(-c5ccc(F)cc5)c4-c4ccncc4)CCN3C2)cc1 [Example 54, 4-[(2S,8aS)-2-[4-(N-Ethylcarbamoyl)phenyl]-1,2,3,5,6,8a-hexahydroindolizin-7-yl]-2-(4-fluorophenyl)-3-(pyridin-4-yl)-1H-pyrrole]",178 to 180
3,"O=C(NCc1ccccc1)c1ccc([C@@H]2C[C@H]3C=C(c4c[nH]c(-c5ccc(F)cc5)c4-c4ccncc4)CCN3C2)cc1 [Example 55, 4-[(2S,8aS)-2-[4-(N-Benzylcarbamoyl)phenyl]-1,2,3,5,6,8a-hexahydroindolizin-7-yl]-2-(4-fluorophenyl)-3-(pyridin-4-yl)-1H-pyrrole]",173 to 175
4,"O=C(NC1CC1)c1ccc([C@@H]2C[C@H]3C=C(c4c[nH]c(-c5ccc(F)cc5)c4-c4ccncc4)CCN3C2)cc1 [Example 56, 4-[(2S,8aS)-2-[4-(N-Cyclopropylcarbamoyl)phenyl]-1,2,3,5,6,8a-hexahydroindolizin-7-yl]-2-(4-fluorophenyl)-3-(pyridin-4-yl)-1H-pyrrole]",200 to 202
5,"O=C(NCCF)c1ccc([C@@H]2C[C@H]3C=C(c4c[nH]c(-c5ccc(F)cc5)c4-c4ccncc4)CCN3C2)cc1 [Example 57, 4-[(2S,8aS)-2-[4-[N-(2-Fluoroethyl)carbamoyl]phenyl]-1,2,3,5,6,8a-hexahydroindolizin-7-yl]-2-(4-fluorophenyl)-3-(pyridin-4-yl)-1H-pyrrole]",183 to 185
6,"CCCNC(=O)c1ccc([C@@H]2C[C@H]3C=C(c4c[nH]c(-c5ccc(F)cc5)c4-c4ccncc4)CCN3C2)cc1 [Example 58, 2-(4-Fluorophenyl)-4-[(2S,8aS)-2-[4-(N-propylcarbamoyl)phenyl]-1,2,3,5,6,8a-hexahydroindolizin-7-yl]-3-(pyridin-4-yl)-1H-pyrrole]",190 to 192
7,"CC(C)NC(=O)c1ccc([C@@H]2C[C@H]3C=C(c4c[nH]c(-c5ccc(F)cc5)c4-c4ccncc4)CCN3C2)cc1 [Example 59, 2-(4-Fluorophenyl)-4-[(2S,8aS)-2-[4-(N-isopropylcarbamoyl)phenyl]-1,2,3,5,6,8a-hexahydroindolizin-7-yl]-3-(pyridin-4-yl)-1H-pyrrole]",202 to 204
8,"COCCNC(=O)c1ccc([C@@H]2C[C@H]3C=C(c4c[nH]c(-c5ccc(F)cc5)c4-c4ccncc4)CCN3C2)cc1 [Example 61, 2-(4-Fluorophenyl)-4-[(2S,8aS)-2-[4-(N-(2-methoxyethyl)carbamoyl)phenyl]-1,2,3,5,6,8a-hexahydroindolizin-7-yl]-3-(pyridin-4-yl)-1H-pyrrole]",166 to 168
